# Measurements: patent publication US8871777B2, “Phenylpyrimidone compounds, the pharmaceutical compositions, preparation methods and uses thereof” (Topharman Shanghai Co., Ltd., priority 2008, dated 2014)
# Experiments:
# [1] = target: T1, human blood platelet PDE5 (Homo sapiens, UniProt O76074); test: PDE5 enzyme inhibition activity test (scintillation proximity); type: biochemical
# T1 construct: obtained by suitably treating various tissues and separating the enzyme with FPLC; from tissue; host or cells: human blood platelets
# Method: (§1) More specifically, PDE5 and PDE3 were obtained from human blood platelet, and PDE6 was separated from bovine retina. Upon enzyme was separated out, the enzyme inhibition activity test would be carried out immediately. The said enzyme inhibition activity test was performed by directly detecting the scintillation proximity of AMP/GMP using TRKQ7100 and TRKQ7090 kits, which was generally as follows. In the presence of different concentrations of inhibitor and a small amount of substrate, 10 μl of buffer (50 mM Tris/HCl PH 7.5, 8.3 mM MgCl2, 1.7 mM EGTA) was added, and then water was added to a final volume of 100 μl. The reaction was initiated with a fixed amount of enzyme, incubated at 30° C. for 30 min, and then quenched with 50 μl of yttrium silicate beads comprising zinc sulphate. After shaken for 20 min, the reaction mixture was put in dark and settled for 30 min, and then readed on a BECKMAN LS6500 MULTI-PURPOSE SCINTILLATION COUNTER.
# PDE6 in bovine retina = target: T2, PDE6 in bovine retina (Bos taurus, UniProt P11541+P23439); test: PDE6 enzyme inhibition activity test (scintillation proximity); type: biochemical; details: for IC50: PDE6 separated from bovine retina, read-out: PDE6 IC50; for PDE6 IC50/PDE5 IC50: selectivity, ratio of IC50 PDE6/IC50 PDE5
# T2 construct: obtained by suitably treating various tissues and separating the enzyme with FPLC; from tissue; host or cells: bovine retina
# T2 sequence (P11541 2-856 limits assumed): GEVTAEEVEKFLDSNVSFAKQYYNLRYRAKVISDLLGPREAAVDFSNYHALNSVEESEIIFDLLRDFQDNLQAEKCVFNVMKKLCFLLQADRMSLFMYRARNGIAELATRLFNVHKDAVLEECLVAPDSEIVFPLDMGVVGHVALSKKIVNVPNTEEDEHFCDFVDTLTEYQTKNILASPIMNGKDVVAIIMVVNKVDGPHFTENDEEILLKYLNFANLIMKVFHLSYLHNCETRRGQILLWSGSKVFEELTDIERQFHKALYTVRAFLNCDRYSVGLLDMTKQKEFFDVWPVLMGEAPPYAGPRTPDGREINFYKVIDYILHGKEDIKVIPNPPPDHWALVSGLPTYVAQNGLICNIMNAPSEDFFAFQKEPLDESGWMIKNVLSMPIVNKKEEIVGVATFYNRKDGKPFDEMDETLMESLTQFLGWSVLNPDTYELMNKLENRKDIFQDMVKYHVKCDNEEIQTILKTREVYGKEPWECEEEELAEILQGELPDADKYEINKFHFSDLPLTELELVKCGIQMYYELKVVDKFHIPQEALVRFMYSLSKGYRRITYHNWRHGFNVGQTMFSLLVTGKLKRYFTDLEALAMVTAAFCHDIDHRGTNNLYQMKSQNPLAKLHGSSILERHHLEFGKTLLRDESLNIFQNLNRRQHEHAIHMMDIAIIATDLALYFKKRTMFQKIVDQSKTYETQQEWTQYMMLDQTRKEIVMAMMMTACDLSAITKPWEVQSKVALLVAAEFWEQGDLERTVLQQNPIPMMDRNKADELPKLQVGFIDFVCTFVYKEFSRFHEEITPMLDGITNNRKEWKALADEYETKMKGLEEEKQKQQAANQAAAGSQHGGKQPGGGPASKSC
# T2 sequence (P23439 2-850 limits assumed): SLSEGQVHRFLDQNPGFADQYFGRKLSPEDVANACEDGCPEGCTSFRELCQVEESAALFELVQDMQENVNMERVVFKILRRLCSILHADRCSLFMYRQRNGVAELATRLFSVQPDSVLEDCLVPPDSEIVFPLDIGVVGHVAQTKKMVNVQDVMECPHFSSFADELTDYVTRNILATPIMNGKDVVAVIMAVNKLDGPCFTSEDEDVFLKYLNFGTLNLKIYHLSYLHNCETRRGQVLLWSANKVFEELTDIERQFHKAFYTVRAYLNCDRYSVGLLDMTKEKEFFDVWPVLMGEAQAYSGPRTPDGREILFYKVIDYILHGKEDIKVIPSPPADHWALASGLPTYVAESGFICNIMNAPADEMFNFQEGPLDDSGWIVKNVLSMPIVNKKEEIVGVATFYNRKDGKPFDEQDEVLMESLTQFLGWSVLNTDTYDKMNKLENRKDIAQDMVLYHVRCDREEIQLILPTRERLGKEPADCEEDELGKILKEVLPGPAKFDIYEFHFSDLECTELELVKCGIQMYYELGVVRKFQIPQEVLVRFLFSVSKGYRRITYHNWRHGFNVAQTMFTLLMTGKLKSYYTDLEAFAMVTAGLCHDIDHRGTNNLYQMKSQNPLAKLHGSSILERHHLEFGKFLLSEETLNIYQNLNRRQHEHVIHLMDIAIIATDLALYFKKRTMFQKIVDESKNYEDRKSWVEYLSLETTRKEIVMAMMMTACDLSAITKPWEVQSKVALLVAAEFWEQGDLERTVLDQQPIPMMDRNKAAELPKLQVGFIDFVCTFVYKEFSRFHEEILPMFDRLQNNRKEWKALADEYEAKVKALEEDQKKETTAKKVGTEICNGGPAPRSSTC
# Method: as §1
IC50 ([1]; PDE5 table) [nM],IC50 ([1]; as repeated in the PDE6 table) [nM],IC50 (PDE6 in bovine retina) [nM],PDE6 IC50/PDE5 IC50 (PDE6 in bovine retina),Structure (SMILES)
2.77,2.77,10.4,3.77,"CCCOc1ccc(NC(=O)C(F)(F)F)cc1-c1nc(CC)c(CC)c(=O)[nH]1 [Example 98, N-(3-(4,5-diethyl-1,6-dihydro-6-oxopyrimidin-2-yl)-4-n-propoxyphenyl)-2,2,2-trifluoroacetamide]"
0.4,0.4,37.9,94.6,"CCCOc1ccc(C(=O)NC(C)C(=O)N2CCN(C)CC2)cc1-c1nc(CC)c(CC)c(=O)[nH]1 (stereo not drawn) [Example 154, 3-(4,5-diethyl-1,6-dihydro-6-oxopyrimidin-2-y1)-N-(1-(4-methylpiperazin-l-yl)-1-oxopropan-2-y1)-4-n-propoxybenzamide]"
2.04,2.04,8.19,4.0,"CCCOc1ccc(C(=O)N2CCCCC2)cc1-c1nc(CC)c(CC)c(=O)[nH]1 [Example 60, (piperid-1-yl)(3-(4,5-diethyl-1,6-dihydro-6-oxopyrimidin-2-yl)-4-n-propoxy)benzophenone]"
0.92,0.92,6.42,22.64,"CCCOc1ccc(NC(=O)CCCNC(C)=O)cc1-c1nc(CC)c(CC)c(=O)[nH]1 [Example 107, 4-Acetamido-N-(3-(4,5-diethyl-1,6-dihydro-6-oxopyrimidin-2-yl)-4-n-propoxyphenyl)butyramide]"
1.93,1.93,17.2,8.9,CCCOc1ccc(C(=O)N2CCN(C)CC2)cc1-c1nc(CC)c(CC)c(=O)[nH]1 [Example 205]
0.45,0.45,13.7,30.3,"CCCOc1ccc(C(=O)NC2CCC(C(=O)OC)NC2)cc1-c1nc(CC)c(CC)c(=O)[nH]1 (centres unmarked) [Example 174, methyl 5-(3-(4,5-diethyl-1,6-dihydro-6-oxopyrimidin-2-yl)-4-n-propoxybenzamido)piperidine-2-formate]"
1.21,1.21,13.2,10.9,"CCCOc1ccc(NC(=O)CC)cc1-c1nc(CC)c(CC)c(=O)[nH]1 [Example 54, N-(3-(1,6-dihydro-4,5-diethyl-6-oxopyrimidin-2-yl)-4-propoxyphenyl)propionamide]"
2.02,2.02,40.6,20.1,CCCOc1ccc(S(=O)(=O)N2CCCC2C(=O)O)cc1-c1nc(CC)c(CC)c(=O)[nH]1 (centres unmarked) [Example 32]
0.57,0.57,7.88,13.7,"CCCOc1ccc(C(=O)N2CCOCC2)cc1-c1nc(CC)c(CC)c(=O)[nH]1 [Example 59, (Morpholin-1-yl)(3-(4,5-diethyl-1,6-dihydro-6-oxopyrimidin-2-yl)-4-n-propoxy)benzophenone]"
1.79,1.79,54.9,30.7,"CCCOc1ccc(S(=O)(=O)NC(CC(N)=O)C(=O)O)cc1-c1nc(CC)c(CC)c(=O)[nH]1 (centres unmarked) [Example 126, 2-(N-(3-(4,5-diethyl-1,6-dihydro-6-oxopyrimidin-2-yl)-4-n-propoxyphenyl)sulfonyl)amino-3-aminoformylpropionic acid]"
1.61,1.61,26.9,16.7,"CCCOc1ccc(NC(N)=O)cc1-c1nc(CC)c(CC)c(=O)[nH]1 [Example 67, 1-(3-(4,5-Diethyl-1,6-dihydro-6-oxopyrimidin-2-yl)-4-n-propoxyphenyl)urea]"
0.92,0.93,20.1,21.8,"CCCOc1ccc(NC(=O)C2CCCCC2)cc1-c1nc(CC)c(CC)c(=O)[nH]1 [Example 55, N-(3-(1,6-dihydro-4,5-diethyl-6-oxopyrimidin-2-yl)-4-propoxyphenyl)cyclohexamide]"
1.46,1.46,52.6,36.0,"CCCOc1ccc(NC(C)=O)cc1-c1nc(C(C)C)c(Br)c(=O)[nH]1 [Example 52, N-(3-(1,6-dihydro-4-isopropyl-5-bromo-6-oxopyrimidin-2-yl)-4-propoxyphenyl)acetamide]"
0.53,0.53,16.4,31.0,"CCCOc1ccc(NC(=O)NCC)cc1-c1nc(CC)c(CC)c(=O)[nH]1 [Example 68, 1-(3-(4,5-Diethyl-1,6-dihydro-6-oxopyrimidin-2-yl)-4-n-propoxyphenyl)-3-ethylurea]"
1.19,1.19,8.19,6.9,"CCCOc1ccc(NC(=O)C2CC(O)CN2C(=O)OC(C)(C)C)cc1-c1nc(CC)c(CC)c(=O)[nH]1 (centres unmarked) [Example 57, N-(3-(1,6-dihydro-4,5-diethyl-6-oxopyrimidin-2-yl)-4-propoxyphenyl)-1-t-butyloxycarbonyl-4-hydroxyprolylamide]"
7.92,7.92,48.6,6.1,CCCOc1ccc(C(=O)N2CCN(CCOCCO)CC2)cc1-c1nc(CC)c(CC)c(=O)[nH]1 [Example 163]
0.88,0.88,54.5,61.9,"CCCOc1ccc(NC(=O)NCCN(CC)CC)cc1-c1nc(CC)c(CC)c(=O)[nH]1.O=C(O)/C=C\C(=O)O [Example 204, 1-(2-(Diethylamino)ethyl)-3-(3-(4,5-diethyl-1,6-dihydro-6-oxopyrimidin-2-yl)-4-n-propoxyphenyl)urea maleate]"
0.83,0.83,18.7,10.53,"CCCOc1ccc(NC(=O)C(N)=O)cc1-c1nc(CC)c(CC)c(=O)[nH]1 [Example 114, N^1-(3-(4,5-diethyl-1,6-dihydro-6-oxopyrimidin-2-yl)-4-n-propoxyphenyl)oxalamide]"
0.49,0.49,13.3,27.3,"CCCOc1ccc(S(=O)(=O)NC(C)C(=O)OCC)cc1-c1nc(CC)c(CC)c(=O)[nH]1 (centres unmarked) [Example 123, ethyl 2-(N-(3-(4,5-diethyl-1,6-dihydro-6-oxopyrimidin-2-yl)-4-n-propoxyphenyl)sulfonyl)aminopropionate]"
–,–,22.2,–,"CCCOc1ccc(NC(=O)CN2CCN(C)CC2)cc1-c1nc(CC)c(CC)c(=O)[nH]1 [Example 179, N-(3-(4,5-diethyl-1,6-dihydro-6-oxopyrimidin-2-yl)-4-n-propoxyphenyl)-2-(4-methylpiperazin-1-yl)acetamide]"
